Assay results reported in patent US20070298099A1, “Liquid and Semi-Solid Pharmaceutical Formulations for Oral Administration of a Substituted Amide” (priority 2004, published 2007).

Legend:
[1] = Oral bioavailability when dosed as a crystalline solid, monkeys; assay type: in vivo; details: even when surfactant was included in the formulation
[2] = Solubility of Compound I Polymorph B in various liquid vehicles (suspension equilibrated at least 24 hours, filtered, HPLC); assay type: physicochemical
Description: Solubility determinations were carried out at room temperature unless otherwise specified. Solubility of N-[1S,2S]-3-(4-chlorophenyl)-2-(3-cyanophenyl)-1-methylpropyl]-2-methyl-2-{[5-trifluoromethyl]pyridine-2-yl}oxy}propanamide (Compound I) as anhydrous unsolvated Polymorph B (such as prepared in Preparatory Example 2) was determined by preparing a suspension of anhydrous unsovated Polymorph B of Compound I in the solvent system. After equilibration for at least 24 hours, the suspension was filtered and the supernatant was analyzed by HPLC. Chromatography was performed on either a Vydac C18 300 A 250×4.6 mm 5 um particle size with in-line Phenomenex Security Guard w/ C18 cartridge or on a Polaris C18-Ether columns or on a Polaris C8-Ether columns using 0.1% phosphoric acid in combination with methanol or acetonitrile depending on HPLC conditions. The compound was detected at […] and assayed using standard curves. The results are presented below in Table 1, calculated based on mg/g vehicle.

[3] = Oral bioavailability when dosed as a crystalline solid, dogs; assay type: in vivo; details: even when surfactant was included in the formulation
[4] = Aqueous solubility of Compound I; assay type: physicochemical

oral bioavailability [1]: very poorly orally bioavailable | Solubility of Compound I, mg/g of vehicle ([2]; CAPRYOL PGMC, anhydrous unsolvated Polymorph B, room temperature): 396 mg/g of vehicle | Solubility of Compound I, mg/g of vehicle ([2]; CREMOPHOR-EL, Polymorph B, room temperature): 131 mg/g of vehicle | Solubility of Compound I, mg/g of vehicle ([2]; Corn oil-SPAN 80-CREMOPHOR EL (35:35:30), w/w/w, Polymorph B, room temperature): 69 mg/g of vehicle | Solubility of Compound I, mg/g of vehicle ([2]; Corn oil-SPAN 80-TWEEN 80 (30:30:40), w/w/w, Polymorph B, room temperature): 78 mg/g of vehicle | Solubility of Compound I, mg/g of vehicle ([2]; Corn oil/Oleic acid/TWEEN 80 (5:2:3), w/w/w, Polymorph B, room temperature): 57 mg/g of vehicle | Solubility of Compound I, mg/g of vehicle ([2]; Glycerol, Polymorph B, room temperature): 0.4 mg/g of vehicle | Solubility of Compound I, mg/g of vehicle ([2]; IMWITOR 742-MIGLYOL 812-TWEEN 80, (15:65:20) w/w/w, Polymorph B, room temperature): 140 mg/g of vehicle | Solubility of Compound I, mg/g of vehicle ([2]; IMWITOR 742-MIGLYOL 812-TWEEN 80, (30:50:20) w/w/w, Polymorph B, room temperature): 171 mg/g of vehicle | Solubility of Compound I, mg/g of vehicle ([2]; IMWITOR 742-MIGLYOL 812-TWEEN 80, (40:40:20) w/w/w, Polymorph B, room temperature): 187 mg/g of vehicle | Solubility of Compound I, mg/g of vehicle ([2]; IMWITOR 742-MIGLYOL 812-TWEEN 80,(45:45:10) w/w/w, Polymorph B, room temperature): ≧191 mg/g of vehicle | Solubility of Compound I, mg/g of vehicle ([2]; IMWITOR 742-Oleic Acid-TWEEN 80-MIGLYOL 812 (2:4:2:2), w/w/w/w, Polymorph B, room temperature): 140 mg/g of vehicle | Solubility of Compound I, mg/g of vehicle ([2]; IMWITOR 742-TWEEN 80 (50:50) w/w, Polymorph B, room temperature): 184 mg/g of vehicle | Solubility of Compound I, mg/g of vehicle ([2]; IMWITOR 742-TWEEN 80 (60:40), w/w, Polymorph B, room temperature): 209 mg/g of vehicle | Solubility of Compound I, mg/g of vehicle ([2]; IMWITOR 742-TWEEN 80, (70:30), w/w, Polymorph B, room temperature): 222 mg/g of vehicle | Solubility of Compound I, mg/g of vehicle ([2]; IMWITOR 742-TWEEN 80-Oleic Acid (4:2:4), w/w/w, Polymorph B, room temperature): 159 mg/g of vehicle | Solubility of Compound I, mg/g of vehicle ([2]; IMWITOR 742-TWEEN 80-Oleic Acid (5:3:2), w/w/w, Polymorph B, room temperature): 178 mg/g of vehicle | Solubility of Compound I, mg/g of vehicle ([2]; IMWITOR 742, at 30 C., anhydrous unsolvated Polymorph B): 267 (at 30 C.) mg/g of vehicle | Solubility of Compound I, mg/g of vehicle ([2]; LABRAFIL M1944CS, Polymorph B, room temperature): 84 mg/g of vehicle | Solubility of Compound I, mg/g of vehicle ([2]; LABRASOL, Polymorph B, room temperature): 202 mg/g of vehicle | Solubility of Compound I, mg/g of vehicle ([2]; MIGLYOL 812-Corn oil-SPAN 80-TWEEN 80 (30:20:25:25), w/w/w, Polymorph B, room temperature): 97 mg/g of vehicle | Solubility of Compound I, mg/g of vehicle ([2]; MIGLYOL 812-IMWITOR 742, 1:1 v/v, Polymorph B, room temperature): ≧204 mg/g of vehicle | Solubility of Compound I, mg/g of vehicle ([2]; MIGLYOL 812-IMWITOR 742, 4:1 v/v, Polymorph B, room temperature): 173 mg/g of vehicle | Solubility of Compound I, mg/g of vehicle ([2]; MIGLYOL 812-LABRASOL/TWEEN80/Oleic acid (40:25:25:10), w/w/w/w, Polymorph B, room temperature): 158 mg/g of vehicle | Solubility of Compound I, mg/g of vehicle ([2]; MIGLYOL 812-PECEOL, 1:1 v/v, Polymorph B, room temperature): 118 mg/g of vehicle | Solubility of Compound I, mg/g of vehicle ([2]; MIGLYOL 812-TWEEN 80, 1:1 w/w, Polymorph B, room temperature): 113 mg/g of vehicle | Solubility of Compound I, mg/g of vehicle ([2]; MIGLYOL 812/Oleic acid/CREMOPHOR EL (5:2:3), w/w/w/w, Polymorph B, room temperature): 129 mg/g of vehicle | Solubility of Compound I, mg/g of vehicle ([2]; MIGLYOL 812/Oleic acid/TWEEN 80 (5:2:3), w/w/w/w, Polymorph B, room temperature): 120 mg/g of vehicle | Solubility of Compound I, mg/g of vehicle ([2]; MIGLYOL 812, Polymorph B, room temperature): 94 mg/g of vehicle | Solubility of Compound I, mg/g of vehicle ([2]; Oleic Acid, Polymorph B, room temperature): 20 mg/g of vehicle | Solubility of Compound I, mg/g of vehicle ([2]; Olive oil, Polymorph B, room temperature): 18 mg/g of vehicle | Solubility of Compound I, mg/g of vehicle ([2]; PEG400-TWEEN80 (1:1), w/w, Polymorph B, room temperature): 138 mg/g of vehicle | Solubility of Compound I, mg/g of vehicle ([2]; PEG400, Polymorph B, room temperature): 120 mg/g of vehicle | Solubility of Compound I, mg/g of vehicle ([2]; PG, Polymorph B, room temperature): 28 mg/g of vehicle | Solubility of Compound I, mg/g of vehicle ([2]; SPAN 80, Polymorph B, room temperature): 45 mg/g of vehicle | Solubility of Compound I, mg/g of vehicle ([2]; Soybean Oil, Polymorph B, room temperature): 21 mg/g of vehicle | Solubility of Compound I, mg/g of vehicle ([2]; Soybean oil-SPAN 80-TWEEN 80 (50:25:25), w/w/w, Polymorph B, room temperature): 59 mg/g of vehicle | Solubility of Compound I, mg/g of vehicle ([2]; TWEEN 80-LABRASOL-Oleic Acid (25:25:50), w/w/w, Polymorph B, room temperature): 120 mg/g of vehicle | Solubility of Compound I, mg/g of vehicle ([2]; TWEEN 80, Polymorph B, room temperature): 104 mg/g of vehicle | oral bioavailability [3]: very poorly orally bioavailable | solubility ([4]; aqueous medium (not further specified)): < 0.4 µg/mL | solubility ([4]; aqueous medium, typically): < 0.4 µg/mL
Structure (SMILES): C[C@H](NC(=O)C(C)(C)Oc1ccc(C(F)(F)F)cn1)[C@@H](Cc1ccc(Cl)cc1)c1cccc(C#N)c1 [Compound I, N-[1S,2S]-3-[(4-chlorophenyl)-2-(3-cyanophenyl)-1-methylpropyl]-2-methyl-2-{[(5-trifluoromethyl)pyridine-2-yl]oxy}propanamide]
